Assay results reported in a melting point compilation (Tetko et al.; mined from patent text by program, amines drawn as free bases though some values may be those of a salt).

Row | Structure (SMILES) | melting point [°C]
1 | COCC(=O)Nc1ccc2c(c1)CCC2 | 104 to 105
2 | c1cncc(C2CCc3ccccc3O2)c1 (stereo unspecified) | 59 to 60
3 | O=C(O)CCn1nc(-c2c(-c3ccccc3)nn3ccccc23)ccc1=O | 156
4 | N#CC1(SCc2ccccc2)C2CC3CC(C2)CC1C3 (stereo unspecified) | 73 to 75
5 | O=C(O)c1ccc2c(c1)S(=O)(=O)c1ccc(Cl)cc1C=C2 | 276 to 278
6 | O=c1[nH]nc2c3c(cccc13)N=CN2 | > 300
7 | O=[N+]([O-])c1cc(O)ccc1F | 86 to 87
8 | CC(=O)Oc1ccc(-c2cnc(NC(=O)Cc3ccccc3)c(Cc3ccccc3)n2)cc1 | 228 to 231
9 | ClC1=Nc2nc(C3CCCC3)n(Cc3ccccc3)c2C2=N[C@H](Cc3ccccc3)CN12 | 124 to 125
10 | CCCOc1ccccc1-c1nc(O)cc(O)n1 | 224 to 225
11 | CC(C)(C)NC(=O)C(C#N)C(=O)C1CC1 (stereo unspecified) | 97 to 98.5
12 | C/C(=C(\C#N)C(N)=S)N1CCCN(c2ccc(F)c(Cl)c2)CC1 | 148 to 150
13 | O=C(NCCCN1CCN(Cc2ccc(Cl)cc2)CC1)NC1CCCCC1 | 109 to 112
14 | CCC(COCc1cccc(Cl)c1)n1cnc2c(N)nc3ccccc3c21 (stereo unspecified) | 60 to 62
15 | CNc1nc(-c2cccc(OCc3ccccc3)c2)c2cc(OC)c(OC)cc2n1 | 116 to 118
16 | CS(=O)(=O)c1csc(NC(=O)c2ccccc2O)n1 | 231 to 235
17 | O=C(NCCO)/C(=C/c1ccc(Cl)cc1)NC(=O)c1ccc(OCCc2ccc(F)cc2)cc1 | 60 to 63
18 | CCOC(=O)C(C)=NNc1ccc(C)cc1C | 146
19 | O=CNCc1ccccc1C(F)(F)C(F)(F)c1ccccc1 | 61 to 75
20 | O=C(NC/C=C\COc1cc(CN2CCCCC2)ccn1)NC1CCCC1 | 121 to 124
21 | Cc1ccccc1C(=O)Nc1ccc(C(=O)N2Cc3ccc(Cl)n3Cc3ccccc32)cc1 | 185 to 187

Row | Structure (SMILES) | melting point [°C]
22 | CCOC(=O)/C=C/c1ccc(OCC2CCCO2)cc1Oc1ncc(C(F)(F)F)cc1Cl (stereo unspecified) | 84 to 86
23 | O=C(O)c1cccc([N+](=O)[O-])c1Nc1ccc(Br)cc1 | 194 to 196
24 | CCCCc1oc2ccccc2c1C(=O)N(Cc1ccccc1)Cc1ccc2c(Br)c(OCC#N)ccc2c1 | 105 to 110
25 | O=C(C/C=C/c1ccccc1)Nc1cccc(-n2ccnc2)c1 | 130 to 133
26 | Cc1nccn1CCCc1ccc(OCc2coc(/C=C/c3ccccc3)n2)cc1 | 93 to 94
27 | O=C(Nc1ccccc1)Nc1ccc2ccc(Cl)nc2n1 | 276
28 | CCCn1c(=O)nc(SC)c2c1ncn2COCc1ccccc1 | 167 to 168
29 | CCOC(=O)N1c2ccccc2Sc2cc(O)c3ccccc3c21 | 205 to 206
30 | CC12CC(O)C3c4cc(O)ccc4CCC3C1CCC2O (stereo unspecified) | 229 to 232
31 | CCCCCc1ccc(OCC(O)CC#CCCCC(=O)O)cc1 (stereo unspecified) | 54 to 57
32 | Nc1c(NCCCOc2cccc(CO)c2)c(=O)c1=O | 207 to 212
33 | O=C(O)CCCCCNC(=O)c1ccc(NC(=O)c2ccccc2O)cc1 | 201 to 203
34 | O=C(Oc1ccccc1)N1CCC(c2noc3cccc(F)c23)CC1 | 108 to 110
35 | CCc1nc(C(=O)c2c(C)cc(C)cc2C)c(C=O)n1C(CC)CC | 119 to 120
36 | CCCNC(=O)[C@H](CSCc1ccccc1)NC(=O)c1cc2cccc(NS(=O)(=O)c3cccs3)c2[nH]1 | 124 to 125
37 | OCc1ncc(O)c2c1[nH]c1ccccc12 | 148
38 | Cc1nc(OCC(F)(F)F)c([N+](=O)[O-])c(N2CCN(c3ccc(F)cc3)CC2)n1 | 92 to 95
39 | CN1CC(CCCCN2CCN(c3ncccn3)CC2)OC1=O (stereo unspecified) | 74 to 76
40 | C=CS(=O)(=O)CC(=O)N1CCN(C(=O)CS(=O)(=O)C=C)CC1 | 215
41 | CCCCCN(C(=O)Nc1ccc(C(=O)O)cc1)c1ccc2c(c1)C(C)(C)CCC2(C)C | 184 to 186
42 | NC1N=C(N2CCCCC2)c2ccccc2NC1=O (stereo unspecified) | 103 to 105

Row | Structure (SMILES) | melting point [°C]
43 | CCOc1ccccc1-c1cc(NC(=O)C2CCN(C(C)C)CC2)ncn1 | 173 to 175
44 | Cn1nc(Cl)c2c(=O)n3c(nc21)SCC3 | 222
45 | CCOCc1nc2c(NC(=O)C(C)C)nc3ccccc3c2n1CC(C)(C)NS(C)(=O)=O | 67 to 70
46 | Cc1ccncc1Cn1nnnc1-c1ccc(Cl)c(Cl)c1 | 167 to 169
47 | Nc1ccc(C2=NCCO2)cc1 | 163 to 165
48 | COC(=O)CCc1cc2cc(Cl)ccc2n1S(=O)(=O)c1ccc2nc(N)sc2c1 | 217 to 222
49 | CS(=O)(=O)c1ccc(-c2ccccc2CO)cc1 | 123 to 124
50 | CC1CCN(Cc2ccccc2)C1=Nc1ccccc1N1CCOCC1 (stereo unspecified) | 96 to 97
51 | CNC(=O)c1cc(Cl)cc(C)c1NC(=O)c1cc(Br)nn1-c1ncccc1Cl | 162 to 164
52 | COc1ccc(-c2cc(C(N)=O)c(=O)n(CC=Cc3ccc(Cl)cc3)n2)cc1 | 195 to 196
53 | C[C@@H](n1ncn(-c2ccc(O)cc2)c1=O)[C@](O)(Cn1cncn1)c1ccc(F)cc1F | 242
54 | COc1ccc(Cn2nnc(-c3ccc(Cl)cc3Cl)c2N)cc1 | 134 to 137
55 | NS(=O)(=O)c1cccc(-c2cc(-c3nc(-c4cccc(C(F)(F)F)c4)cc(C(F)(F)F)n3)ccn2)c1 | 244
56 | O=C(O)c1ccc(COc2ccc3cc(-c4csc(-c5ccccc5)n4)ccc3c2Br)cc1 | 268 to 270
57 | CC1=CN2CCS(=O)(=O)N=C2C(c2ccc(OC3CCCCC3)cc2)=N1 | 216 to 217
58 | CSc1nc2ccnn2c2ncccc12 | 192
59 | Cc1ccc(NC(=O)c2cc(Cl)c(O)c(Cl)c2)c(O)c1 | 246 to 247
60 | O=C1N(Cc2ncccc2C(F)(F)F)c2ccccc2C12COc1c2ccc2c1OCCO2 (stereo unspecified) | 206 to 207
61 | Cc1cc(-n2ccnc2)c2cccc(OCc3c(Cl)ccc(S(=O)(=O)N4CCC[C@H]4C(=O)NCCCN4CCCC4)c3Cl)c2n1 | 120
62 | CCOC(=O)Nc1c(C(=O)c2cccc(C)c2)[nH]c2cc(Cl)ccc12 | 154 to 157

Now from value to molecule:

Row | melting point [°C] | Structure (SMILES)
63 | 124 to 125 | CCn1c(=O)n(C2CCN(CCCCN3C(=O)c4ccccc4S3(=O)=O)CC2)c2ccccc21
64 | 196 to 198 | NC(=O)c1c(Cl)c(-c2ccccc2)n2c1CN(C(=O)Oc1ccccc1)CC2
65 | 127 to 128 | CC(C)c1cc(C(=O)CI)cc(C(C)C)c1O
66 | 56 to 57 | CCOC(=O)Nc1ccc(OC)cc1[N+](=O)[O-]
67 | 149 to 151 | Cc1c(C)n(CC=C(Cl)Cl)c2c(OCc3ccccc3)nncc12
68 | 238 | Nc1ncnc2c([C@@H]3N[C@H](CO)[C@@H](O)[C@H]3O)c[nH]c12
69 | 210 to 211 | CCC(CC)(COc1nn2ccnc2cc1C)CS(N)(=O)=O
70 | 132 to 134 | O=C(Nc1ccc(I)cc1)OCc1ccccc1
71 | 119 to 120 | CCOC(=O)c1cccc(-c2ccc(Cl)c3cc(CO)sc23)c1
72 | 119 to 121 | C=CC(=O)Oc1c(C(C)c2cc(C(C)(C)CC)cc(C(C)(C)CC)c2O)cc(C(C)(C)CC)cc1C(C)(C)CC (stereo unspecified)
73 | 218 to 220 | COc1ccc(COc2ccc(C=C(C=O)C(C=O)=Cc3ccc(OCc4ccc(OC)cc4)cc3)cc2)cc1
74 | 173 to 178 | c1ccc(Nc2nc(-c3cccnc3)nc3ccccc23)cc1
75 | 105 | CN1C(=O)N(C[C@@H](CCS(=O)(=O)c2ccc(Oc3ccc(F)cc3)cc2)N(O)C=O)C(=O)C1(C)C
76 | 196 to 208 | Cc1ccc2cccc(OCc3c(Cl)ccc(N(C)C(=O)CNC(=O)C=Cc4ccc(-c5nnn[nH]5)cc4)c3Cl)c2n1
77 | 63 to 65 | CC(C)=CCCC(C)=CCCC(C)=CC=CC(C)=CC(N)=O
78 | 115 to 118 | CCC1CSC(CCc2ccccc2)(Cn2ccnc2)S1 (stereo unspecified)
79 | 120 to 122 | COc1cc(C(=O)O)ccc1Cn1cc(CC(C)C(=O)N(C)C)c2ccc(C(=O)NCC3CCCC3)cc21 (stereo unspecified)
80 | 89 | COc1ccc(OC)c(C(=O)CC(O)C(=O)O)c1 (stereo unspecified)
81 | 105 to 106 | CCCCc1cnc(NCCCOc2cccc(CN3CCCCC3)c2)[nH]c1=O
82 | 114 to 115 | CCCCC1(CCCC)Cc2c(O)cccc2C1=O

Row | melting point [°C] | Structure (SMILES)
83 | 202 to 203 | CCc1cccc(CC)c1NC(=O)C1c2ccccc2COc2ccc(C)cc21 (stereo unspecified)
84 | 95 to 97 | CCOC(=O)c1[nH]c(C)c(C)c1CC
85 | 40 to 42 | CC#CCOc1ccc(S(=O)(=O)N2CCOCC2C(=O)O)cc1 (stereo unspecified)
86 | 51 to 52 | c1ccc(N2CCN(CCCc3cccnc3)CC2)nc1
87 | 52 to 57 | Oc1ccc(C2CCC(NCC(O)Cc3ccccc3)CC2)cc1 (racemic)
88 | 60 | CSC(=C[N+](=O)[O-])N(C)C
89 | 98.5 to 100 | Cn1cccc1C=CC1=CC(=O)C(C)(C)O1
90 | 188 to 190 | CCOC(=O)C(C)(C)Sc1ccc(OCCn2c(C)nc3ccccc3c2=O)cc1
91 | 260 to 263 | CC(=O)NC[C@H]1CN(c2ccc(N3CCC(=C(C#N)c4cccs4)CC3)c(F)c2)C(=O)O1
92 | 120 to 122 | CC(=O)Nc1ccc2nc(CN3[C@H](C)CCC[C@@H]3C)ccc2c1
93 | 108 to 109 | COc1cc(COc2ncccc2CC#N)ccc1OCc1nc(-c2ccccc2)oc1C
94 | 120 to 121 | Cc1c(C)c2c(c(C)c1OCc1ccccc1)CC(C)(CN1CCN(c3ccccc3)CC1)O2 (stereo unspecified)
95 | 194 to 196 | COc1ccc(-c2c([N+](=O)[O-])c3ccc(OC)cc3c(=O)n2CC#N)cc1
96 | 138 to 140 | CC(C)(C)OC(=O)C(C)(C)Oc1ccc2c(c1)Nc1ccccc1S2
97 | 209 to 210 | COc1cc2ncnc(N3CCN(C(=O)Nc4ccc5[nH]ccc5c4)CC3)c2cc1OC
98 | 171 to 172 | CCCCc1n[nH]c(C(=O)OC)c1Cc1ccc(-c2ccccc2-c2nc(=O)s[nH]2)cc1
99 | 258 | O=C(Nc1ncco1)c1c(C(F)(F)F)nc2c(C(F)(F)F)cccc2c1O
100 | 150 | COc1ccc2sc(C(=O)O)c(OCc3ccccc3)c2c1
101 | 107 to 108 | CC(C)(O)Cc1ccc(N)cc1
